Laboratory results published in patent US4714706A, “Pyridyloxy derivatives and their use as insecticides” (Sumitomo Chemical Company, Limited, priority 1985, dated 1987).
Like-named read-outs stand apart in the source and are kept apart here.

What was measured:
[1] = system: common mosquito (Culex pipiens pallens); assay: Rate of emergence of last instar larvae of common mosquito reared 7 days in treated water (Test Example 1); type: in vivo; details: 3.5 ppm
Protocol: An emulsifiable concentrate prepared according to Formulation Example 1 was diluted with water to make a 400 fold dilution. The dilution (0.7 ml) was added to 100 ml of distilled water. Last instar larvae of common mosquito (Culex pipiens pallens) were released therein and reared for 7 days until their emergence. The rate of emergence was observed according to the following criteria: […]

[2] = system: housefly (Musca domestica); assay: Emergence inhibition of housefly larvae reared in treated artificial culture (Test Example 2); type: in vivo; details: read-out: Emergence inhibition
Protocol: Powdered animal feed (2 g) was thoroughly mixed with bran (14 g). An emulsifiable concentrate prepared according to Formulation Example 1 was diluted with water to a designed concentration and the dilution was added to the above mixture. The resultant mixture was stirred well to make an artificial culture. Thirty larvae of housefly (Musca domestica) were reared therein until their pupation. The obtained pupae were placed into a plastic cup, and the rate of emergence was determined. According to the following equation, the emergence inhibition (%) was calculated: [formula]

[3] = last instar larvae of Culex pipiens pallens, reared 7 days
[4] = 0.3 ppm, Musca domestica larvae

How did the Rate of emergence [1, 3] turn out when `CC(C)(C)CCOc1ccc(OCCOc2ccccn2)cc1` [compound 13] was run?
Its Rate of emergence is “A (less than 10%)”.

`CC(C)CCOc1ccc(OCC(C)Oc2ccccn2)cc1` (stereo not drawn) [compound 15] was tested. Which Rate of emergence [1, 3] did it give?
Its Rate of emergence is “A (less than 10%)”.

And the inhibition at 0.3 ppm [2, 4]?
The inhibition at 0.3 ppm was 0%.

And the inhibition at 1 ppm ([2]; 1 ppm, Musca domestica larvae)?
Its inhibition at 1 ppm is 43%.

And the inhibition at 3 ppm ([2]; 3 ppm, Musca domestica larvae)?
Its inhibition at 3 ppm is 93%.

How did the Rate of emergence [1, 3] turn out when `Cc1cc(OCCOc2nccs2)cc(C)c1OCCC(C)C` [compound 31] was run?
The Rate of emergence was “A (less than 10%)”.

Which results are given for `CC(C)COc1ccc(OCCOc2nccs2)cc1` [compound 26]?
Rate of emergence [1, 3]: A (less than 10%); inhibition at 0.3 ppm [2, 4]: 11%; inhibition at 1 ppm ([2]; 1 ppm, Musca domestica larvae): 61%; inhibition at 3 ppm ([2]; 3 ppm, Musca domestica larvae): 100%

With `CC(C)CCOc1ccc(OCCSc2ncccn2)cc1` [compound 23] as the molecule, how does the Rate of emergence [1, 3] read?
The Rate of emergence was “A (less than 10%)”.

Which Rate of emergence [1, 3] does the source give for `CC(C)CCOc1ccc(OCCOc2ccccn2)cc1Cl` [compound 32] here?
The Rate of emergence was “A (less than 10%)”.

And the inhibition at 0.3 ppm [2, 4]?
The inhibition at 0.3 ppm was 3%.

And the inhibition at 1 ppm ([2]; 1 ppm, Musca domestica larvae)?
The inhibition at 1 ppm was 56%.

And the inhibition at 3 ppm ([2]; 3 ppm, Musca domestica larvae)?
Its inhibition at 3 ppm is 94%.

Which Rate of emergence [1, 3] does the source give for `COC(C)(C)CCCC(C)CCCCOc1ccccn1` (stereo not drawn) [compound 1] here?
The Rate of emergence was “A (less than 10%)”.

How did the Rate of emergence [1, 3] turn out when `CC(C)CCOc1ccc(OCCOc2ncccn2)cc1` [compound 20] was run?
The Rate of emergence was “A (less than 10%)”.

How did the Rate of emergence [1, 3] turn out when `CC(C)CCOc1ccc(OCC(C)Oc2ncccn2)cc1` (stereo not drawn) [compound 19] was run?
The Rate of emergence was “A (less than 10%)”.

Which Rate of emergence [1, 3] does the source give for `CC(C)CCOc1ccc(OC(C)COc2ccccn2)cc1` (stereo not drawn) [compound 18] here?
Its Rate of emergence is “A (less than 10%)”.

For `C=CCOc1ccc(OCCOc2ccccn2)cc1` [compound 6], which Rate of emergence [1, 3] is on record?
The Rate of emergence was “A (less than 10%)”.

How did the Rate of emergence [1, 3] turn out when `CC(C)CCOc1ccc(OC(C)COc2ncccn2)cc1` (stereo not drawn) [compound 17] was run?
The Rate of emergence was “A (less than 10%)”.

For `Cc1cc(OCCOc2ccccn2)cc(C)c1OCCC(C)C` [compound 33], which Rate of emergence [1, 3] is on record?
Its Rate of emergence is “A (less than 10%)”.

`CC(C)CCOc1ccc(OC(C)COc2nccs2)cc1` (stereo not drawn) [compound 24] was tested. Which Rate of emergence [1, 3] did it give?
The Rate of emergence was “A (less than 10%)”.

With `CCCCCOc1ccc(OCCOc2ccccn2)cc1` [compound 11] as the molecule, how does the Rate of emergence [1, 3] read?
The Rate of emergence was “A (less than 10%)”.

`CC(C)CCOc1ccc(OCCSC2=NCCS2)cc1` [compound 21] was tested. Which Rate of emergence [1, 3] did it give?
The Rate of emergence was “A (less than 10%)”.

Which results are given for `CC(C)CCCc1ccc(OCCOc2ccccn2)cc1` [compound 34]?
Rate of emergence [1, 3]: A (less than 10%); inhibition at 0.3 ppm [2, 4]: 41%; inhibition at 1 ppm ([2]; 1 ppm, Musca domestica larvae): 67%; inhibition at 3 ppm ([2]; 3 ppm, Musca domestica larvae): 100%

For `CC(C)CCOc1ccc(OCCOc2nccs2)cc1Cl` [compound 30], which Rate of emergence [1, 3] is on record?
Its Rate of emergence is “A (less than 10%)”.

`CC(C)COCc1ccc(OCCOc2nccs2)cc1` [Compound No. 29] was tested. Which Rate of emergence [1, 3] did it give?
Its Rate of emergence is “A (less than 10%)”.

And the inhibition at 0.3 ppm [2, 4]?
The inhibition at 0.3 ppm was 100%.

What about the inhibition at 1 ppm ([2]; 1 ppm, Musca domestica larvae) of the same molecule?
The inhibition at 1 ppm was 100%.

What about the inhibition at 3 ppm ([2]; 3 ppm, Musca domestica larvae) of the same molecule?
Its inhibition at 3 ppm is 100%.

`CC(C)CCCC(C)CCCCOc1ncccn1` (stereo not drawn) [compound 4] was tested. Which Rate of emergence [1, 3] did it give?
The Rate of emergence was “A (less than 10%)”.

`CC(C)CCOc1ccc(OCCOc2nccs2)cc1` [compound 16] was tested. Which Rate of emergence [1, 3] did it give?
The Rate of emergence was “A (less than 10%)”.

What about the inhibition at 0.3 ppm [2, 4] of the same molecule?
Its inhibition at 0.3 ppm is 45%.

What about the inhibition at 1 ppm ([2]; 1 ppm, Musca domestica larvae) of the same molecule?
The inhibition at 1 ppm was 96%.

And the inhibition at 3 ppm ([2]; 3 ppm, Musca domestica larvae)?
The inhibition at 3 ppm was 100%.

With `CCOc1ccc(OCCOc2ccccn2)cc1` [compound 8] as the molecule, how does the Rate of emergence [1, 3] read?
The Rate of emergence was “A (less than 10%)”.

For `CC(C)CCCc1ccc(OCCOc2nccs2)cc1` [compound 35], which Rate of emergence [1, 3] is on record?
Its Rate of emergence is “A (less than 10%)”.

What about the inhibition at 0.3 ppm [2, 4] of the same molecule?
The inhibition at 0.3 ppm was 51%.

What about the inhibition at 1 ppm ([2]; 1 ppm, Musca domestica larvae) of the same molecule?
The inhibition at 1 ppm was 100%.

And the inhibition at 3 ppm ([2]; 3 ppm, Musca domestica larvae)?
Its inhibition at 3 ppm is 100%.

`CC(C)CCOc1ccc(OCC(C)Oc2nccs2)cc1` (stereo not drawn) [compound 25] was tested. Which Rate of emergence [1, 3] did it give?
Its Rate of emergence is “A (less than 10%)”.

And the inhibition at 0.3 ppm [2, 4]?
Its inhibition at 0.3 ppm is 8%.

What about the inhibition at 1 ppm ([2]; 1 ppm, Musca domestica larvae) of the same molecule?
Its inhibition at 1 ppm is 58%.

What about the inhibition at 3 ppm ([2]; 3 ppm, Musca domestica larvae) of the same molecule?
Its inhibition at 3 ppm is 100%.

For `C=C(C)COc1ccc(OCCOc2ccccn2)cc1` [compound 5], which Rate of emergence [1, 3] is on record?
Its Rate of emergence is “A (less than 10%)”.

`COC(C)(C)COc1ccc(OCCOc2nccs2)cc1` [compound 27] was tested. Which Rate of emergence [1, 3] did it give?
Its Rate of emergence is “A (less than 10%)”.

With `COC(C)(C)COc1ccc(OCCOc2ccccn2)cc1` [compound 3] as the molecule, how does the Rate of emergence [1, 3] read?
The Rate of emergence was “A (less than 10%)”.

For `CC(C)CCOc1ccc(OCCOc2ccccn2)cc1` [Compound No. 7], which Rate of emergence [1, 3] is on record?
The Rate of emergence was “A (less than 10%)”.

What about the inhibition at 0.3 ppm [2, 4] of the same molecule?
Its inhibition at 0.3 ppm is 31%.

And the inhibition at 1 ppm ([2]; 1 ppm, Musca domestica larvae)?
The inhibition at 1 ppm was 87%.

What about the inhibition at 3 ppm ([2]; 3 ppm, Musca domestica larvae) of the same molecule?
Its inhibition at 3 ppm is 100%.

How did the Rate of emergence [1, 3] turn out when `CCC(C)COc1ccc(OCCOc2ccccn2)cc1` (stereo not drawn) [compound 12] was run?
Its Rate of emergence is “A (less than 10%)”.

And the inhibition at 0.3 ppm [2, 4]?
Its inhibition at 0.3 ppm is 0%.

And the inhibition at 1 ppm ([2]; 1 ppm, Musca domestica larvae)?
The inhibition at 1 ppm was 20%.

And the inhibition at 3 ppm ([2]; 3 ppm, Musca domestica larvae)?
Its inhibition at 3 ppm is 83%.

What does the source list for `CC(C)COCc1ccc(OCCOc2ccccn2)cc1` [compound 28]?
Rate of emergence [1, 3]: A (less than 10%); inhibition at 0.3 ppm [2, 4]: 93%; inhibition at 1 ppm ([2]; 1 ppm, Musca domestica larvae): 100%; inhibition at 3 ppm ([2]; 3 ppm, Musca domestica larvae): 100%

With `COC(C)(C)CCCC(C)C/C=C/C(C)=C/C(=O)OC(C)C` (stereo not drawn) [(a), methoprene, reference compound] as the molecule, how does the Rate of emergence ([1]; 168 h) read?
Its Rate of emergence is “A (less than 10%)”.

What about the inhibition at 0.3 ppm ([2]; Musca domestica) of the same molecule?
Its inhibition at 0.3 ppm is 2%.

And the inhibition at 1 ppm ([2]; Musca domestica)?
The inhibition at 1 ppm was 13%.

And the inhibition at 3 ppm ([2]; Musca domestica)?
Its inhibition at 3 ppm is 60%.

With `CC(C)CCOc1ccc(OCCSc2ccccn2)cc1` [Compound No. 22] as the molecule, how does the Rate of emergence [1, 3] read?
The Rate of emergence was “A (less than 10%)”.

Which Rate of emergence [1, 3] does the source give for `CCCCOc1ccc(OCCOc2ccccn2)cc1` [Compound No. 9] here?
The Rate of emergence was “A (less than 10%)”.

`CC(C)COc1ccc(OCCOc2ccccn2)cc1` [Compound No. 2] was tested. Which Rate of emergence [1, 3] did it give?
Its Rate of emergence is “A (less than 10%)”.

And the inhibition at 0.3 ppm [2, 4]?
The inhibition at 0.3 ppm was 3%.

And the inhibition at 1 ppm ([2]; 1 ppm, Musca domestica larvae)?
The inhibition at 1 ppm was 42%.

And the inhibition at 3 ppm ([2]; 3 ppm, Musca domestica larvae)?
Its inhibition at 3 ppm is 100%.

`CCCOc1ccc(OCCOc2ccccn2)cc1` [compound 10] was tested. Which Rate of emergence [1, 3] did it give?
The Rate of emergence was “A (less than 10%)”.

Which Rate of emergence [1, 3] does the source give for `CC(C)(C)COc1ccc(OCCOc2ccccn2)cc1` [compound 14] here?
The Rate of emergence was “A (less than 10%)”.
